According to ChEMBL document CHEMBL4257578, “6'-Fluoro-3-deazaneplanocin: Synthesis and antiviral properties, including Ebola” (Bioorg Med Chem Lett, 2018):
The source made the active and inactive calls. No cut-off for these calls is given here.

Legend:
[1] = Selectivity index, ratio of CC50 for MDCK cells to EC50 for Influenza A virus (H1N1); assay type: toxicity; settings: dog, read-out: Ratio CC50/EC50
Yellow fever virus = experiment: Antiviral activity against Yellow fever virus infected in African green monkey Vero cells; assay type: functional, organism-based
[2] = Selectivity index, ratio of CC50 for African green monkey Vero cells to EC50 for Ebolavirus; assay type: toxicity; settings: read-out: Ratio CC50/EC50
[3] = Cytotoxicity against African green monkey Vero 76 cells assessed as reduction in cell viability; assay type: cell-based; settings: chlorocebus sabaeus
Ebolavirus [4] = experiment: Antiviral activity against Ebolavirus infected in African green monkey Vero cells; assay type: functional, cell-based; settings: Orthoebolavirus
Norovirus = experiment: Antiviral activity against Norovirus infected in human HG23 cells; assay type: functional, organism-based
Human adenovirus 5 = experiment: Antiviral activity against Human adenovirus 5 infected in human A549 cells; assay type: functional, organism-based
[5] = tested on: Japanese encephalitis virus; experiment: Antiviral activity against Japanese […] encephalitis virus infected in African green monkey Vero 76 cells; assay type: functional, organism-based
West Nile virus = experiment: Antiviral activity against West Nile virus infected in African green monkey Vero 76 cells; assay type: functional, organism-based
Human betaherpesvirus 5 = experiment: Antiviral activity against Human cytomegalovirus infected in human HFF cells; assay type: functional, organism-based
[6] = Cytotoxicity against MDCK cells assessed as reduction in cell viability; assay type: cell-based, Canis lupus familiaris; settings: dog
Measles morbillivirus = experiment: Antiviral activity against Measles virus infected in African green monkey Vero 76 cells; assay type: functional, organism-based
Tacaribe virus = experiment: Antiviral activity against Tacaribe virus infected in African green monkey Vero cells; assay type: functional, organism-based; settings: Mammarenavirus tacaribeense
dengue virus type 2 = experiment: Antiviral activity against Dengue virus 2 infected in African green monkey Vero 76 cells; assay type: functional, organism-based
[7] = Selectivity index, ratio of CC50 for African green monkey Vero cells to EC50 for Pichinde virus; assay type: toxicity; settings: read-out: Ratio CC50/EC50
Influenza A virus = experiment: Antiviral activity against Influenza A virus (H1N1) infected in MDCK cells; assay type: functional, organism-based
Hepatitis B virus = experiment: Antiviral activity against Hepatitis B virus infected in human HepG2.2.15 cells; assay type: functional, organism-based
Poliovirus 1 = experiment: Antiviral activity against Human poliovirus 1 infected in African green monkey Vero 76 cells; assay type: functional, organism-based
Pichinde virus = experiment: Antiviral activity against Pichinde virus infected in African green monkey Vero; assay type: functional, organism-based
Usutu virus = experiment: Antiviral activity against Usutu virus infected in African green monkey Vero 76 cells; assay type: functional, organism-based
Chikungunya virus = experiment: Antiviral activity against Chikungunya virus infected in African green monkey Vero 76 cells; assay type: functional, organism-based
[8] = Selectivity index, ratio of CC50 for African green monkey Vero 76 cells to EC50 for measles virus; assay type: toxicity; settings: read-out: Ratio CC50/EC50
[9] = Cytotoxicity against African green monkey Vero cells assessed as reduction in cell viability; assay type: cell-based; settings: chlorocebus sabaeus
[10] = tested on: Venezuelan equine encephalitis virus; experiment: Antiviral activity against Venezuelan equine encephalitis virus infected in African green monkey Vero 76 cells; assay type: functional, organism-based
[11] = molecular target: AdoHcyase_NAD domain-containing protein (Oryctolagus cuniculus, UniProt G1SVH0); experiment: Inhibition of SAHase from rabbit erythrocytes using S-adenosyl-L-homocysteine as substrate preincubated for 5 mins followed by substrate addition and measured after 1 hr by Measure-iTTM thiol quantitation reagent based assay
Punta Toro virus = experiment: Antiviral activity against Punta Toro virus infected in African green monkey Vero 76 cells; assay type: functional, organism-based
Rift Valley fever virus = experiment: Antiviral activity against Rift Valley fever virus infected in African green monkey Vero 76 cells; assay type: functional, organism-based
Ebolavirus [12] = experiment: Antiviral activity against Ebolavirus subtype Zaire infected in African green monkey Vero E6 cells; assay type: functional, Ebola virus - Zaire (1995); settings: Orthoebolavirus, Vero C1008
[13] = Cytotoxicity against African green monkey Vero E6 cells assessed as reduction in cell viability; assay type: cell-based; settings: chlorocebus sabaeus, Vero E6 cells (Vero C1008)
[14] = Selectivity index, ratio of CC50 for African green monkey Vero E6 cells to EC50 for Ebolavirus subtype Zaire; assay type: toxicity, Vero C1008; settings: read-out: Ratio CC50/EC50

AdoHcyase_NAD domain-containing protein, sequence (G1SVH0 whole entry, the tested form may be a part): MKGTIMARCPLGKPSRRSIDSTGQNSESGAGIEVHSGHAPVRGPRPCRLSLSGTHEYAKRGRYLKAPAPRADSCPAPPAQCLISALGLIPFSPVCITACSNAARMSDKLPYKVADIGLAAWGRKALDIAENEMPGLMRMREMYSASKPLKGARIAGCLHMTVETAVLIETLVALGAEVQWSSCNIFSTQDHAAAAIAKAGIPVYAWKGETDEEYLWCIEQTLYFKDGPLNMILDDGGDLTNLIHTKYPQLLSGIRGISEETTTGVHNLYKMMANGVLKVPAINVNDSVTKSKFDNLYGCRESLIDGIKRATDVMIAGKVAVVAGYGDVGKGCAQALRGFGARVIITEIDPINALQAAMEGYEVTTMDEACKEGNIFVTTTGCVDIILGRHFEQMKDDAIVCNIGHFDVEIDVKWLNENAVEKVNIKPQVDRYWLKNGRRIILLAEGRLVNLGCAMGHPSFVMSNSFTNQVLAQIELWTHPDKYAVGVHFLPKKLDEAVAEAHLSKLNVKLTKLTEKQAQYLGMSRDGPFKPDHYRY

Q: Which selectivity ratio [1] does the source give for Nc1cccc2c1ncn2[C@@H]1C(F)=C(CO)[C@@H](O)[C@H]1O here?
A: The selectivity ratio was 6.6.

Q: What about the Activity (Yellow fever virus) of the same molecule?
A: Its Activity is “inactive”.

Q: And the selectivity ratio [2]?
A: The selectivity ratio was greater than 347.

Q: And the CC50 [3]?
A: Its CC50 is 115 µM.

Q: And the EC50 (Ebolavirus [4])?
A: Its EC50 is less than 0.36 µM.

Q: And the Activity (Norovirus)?
A: Its Activity is “inactive”.

Q: And the Activity (Human adenovirus 5)?
A: Its Activity is “inactive”.

Q: What about the Activity [5] of the same molecule?
A: Its Activity is “inactive”.

Q: And the Activity (West Nile virus)?
A: The Activity was “inactive”.

Q: And the Activity (Human betaherpesvirus 5)?
A: Its Activity is “inactive”.

Q: And the CC50 [6]?
A: The CC50 was 133 µM.

Q: And the EC50 (Measles morbillivirus)?
A: Its EC50 is less than 0.36 µM.

Q: And the Activity (Tacaribe virus)?
A: Its Activity is “inactive”.

Q: What about the Activity (dengue virus type 2) of the same molecule?
A: The Activity was “inactive”.

Q: What about the selectivity ratio [7] of the same molecule?
A: The selectivity ratio was greater than 6.3.

Q: And the EC50 (Influenza A virus)?
A: Its EC50 is 20.2 µM.

Q: And the Activity (Hepatitis B virus)?
A: The Activity was “inactive”.

Q: What about the Activity (Poliovirus 1) of the same molecule?
A: The Activity was “inactive”.

Q: And the EC50 (Pichinde virus)?
A: The EC50 was 57.6 µM.

Q: What about the Activity (Usutu virus) of the same molecule?
A: Its Activity is “inactive”.

Q: What about the Activity (Chikungunya virus) of the same molecule?
A: The Activity was “inactive”.

Q: What about the selectivity ratio [8] of the same molecule?
A: Its selectivity ratio is greater than 320.

Q: And the CC50 [9]?
A: The CC50 was 125 to 360 µM.

Q: What about the Activity [10] of the same molecule?
A: The Activity was “inactive”.

Q: What about the IC50 [11] of the same molecule?
A: The IC50 was 0.00869 µM.

Q: And the Activity (Punta Toro virus)?
A: Its Activity is “inactive”.

Q: And the Activity (Rift Valley fever virus)?
A: Its Activity is “inactive”.

Q: For Nc1ccnc2c1ncn2[C@@H]1C=C(CO)[C@@H](O)[C@H]1O, which EC50 (Ebolavirus [12]) is on record?
A: The EC50 was 4 µM.

Q: What about the CC50 [13] of the same molecule?
A: The CC50 was 60 µM.

Q: What about the selectivity ratio [14] of the same molecule?
A: Its selectivity ratio is 15.

Q: For Nc1cccc2c1ncn2[C@@H]1C=C(CO)[C@@H](O)[C@H]1O, which EC50 (Ebolavirus [12]) is on record?
A: Its EC50 is 2 µM.

Q: And the CC50 [13]?
A: Its CC50 is greater than 1700 µM.

Q: What about the selectivity ratio [14] of the same molecule?
A: Its selectivity ratio is greater than 850.
